Common to all, as to type: cell-based
One test concerns the target T1, human M1 receptor (Homo sapiens, UniProt P11229).
T1 sequence (P11229 1-460): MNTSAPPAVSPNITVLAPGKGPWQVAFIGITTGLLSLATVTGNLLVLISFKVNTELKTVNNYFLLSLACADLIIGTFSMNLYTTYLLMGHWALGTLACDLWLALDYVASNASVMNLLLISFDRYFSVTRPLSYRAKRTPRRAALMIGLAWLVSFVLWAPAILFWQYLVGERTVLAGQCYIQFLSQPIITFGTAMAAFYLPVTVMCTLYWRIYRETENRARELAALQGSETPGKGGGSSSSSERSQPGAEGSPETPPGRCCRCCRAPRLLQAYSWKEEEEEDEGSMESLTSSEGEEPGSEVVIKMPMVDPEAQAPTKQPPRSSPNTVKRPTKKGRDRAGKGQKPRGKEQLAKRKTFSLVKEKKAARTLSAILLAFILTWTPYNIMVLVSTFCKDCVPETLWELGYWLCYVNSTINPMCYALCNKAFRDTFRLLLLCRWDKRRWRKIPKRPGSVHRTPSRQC
The experiment in a line: In vitro functional assay of muscarinic acetylcholine receptor activity (aequorin calcium flux, antagonist mode vs EC80 acetylcholine), M1. Put shortly:
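Antagonism at M1 was measured as a concentration-dependent reduction of the EC80 acetylcholine-evoked aequorin luminescence, from which IC50 was derived. Human M1 CHO-K1 aequorin cells were first loaded with 5 uM coelenterazine h for 4 h and exposed to compound for 30 min at room temperature.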
In general terms: Calcium assays in cells follow changes in intracellular calcium, usually with a dye or a luminescent sensor.

In a further test the target is T2, M2 (Homo sapiens, UniProt P08172).
T2 sequence (P08172 1-466): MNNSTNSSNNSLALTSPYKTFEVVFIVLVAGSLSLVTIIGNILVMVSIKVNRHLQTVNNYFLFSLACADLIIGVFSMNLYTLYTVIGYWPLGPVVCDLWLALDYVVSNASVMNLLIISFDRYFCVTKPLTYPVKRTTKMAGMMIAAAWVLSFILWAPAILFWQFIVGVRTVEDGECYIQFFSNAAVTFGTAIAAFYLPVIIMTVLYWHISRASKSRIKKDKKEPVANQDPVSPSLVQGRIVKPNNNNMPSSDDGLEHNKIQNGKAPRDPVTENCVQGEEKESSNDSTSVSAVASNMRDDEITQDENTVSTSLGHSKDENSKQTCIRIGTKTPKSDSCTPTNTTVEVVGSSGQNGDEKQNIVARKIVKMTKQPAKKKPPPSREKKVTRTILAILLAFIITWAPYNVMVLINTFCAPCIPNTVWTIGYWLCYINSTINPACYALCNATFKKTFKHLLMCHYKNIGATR
Description: In vitro functional assay of muscarinic acetylcholine receptor activity, M2.

The next test addresses M3 (Homo sapiens, UniProt P20309). Description: In vitro functional assay of muscarinic acetylcholine receptor activity, M3. The following applies: antagonist IC50 at M3; read-out: M3 IC50.
Where [1] appears, read: antagonist IC50 at M2, read-out: M2 IC50.
[2] abbreviates: CHO-K1 cells stably expressing human M1 receptor with Aequorin, decrease in EC80 acetylcholine response, read-out: M1 IC50.

pIC50: −log10 of the molar value. Read-outs that look alike come from different tables or passages of the source. A value given as a limit tells only on which side of the number the result lay.

M3, sequence (P20309 whole entry): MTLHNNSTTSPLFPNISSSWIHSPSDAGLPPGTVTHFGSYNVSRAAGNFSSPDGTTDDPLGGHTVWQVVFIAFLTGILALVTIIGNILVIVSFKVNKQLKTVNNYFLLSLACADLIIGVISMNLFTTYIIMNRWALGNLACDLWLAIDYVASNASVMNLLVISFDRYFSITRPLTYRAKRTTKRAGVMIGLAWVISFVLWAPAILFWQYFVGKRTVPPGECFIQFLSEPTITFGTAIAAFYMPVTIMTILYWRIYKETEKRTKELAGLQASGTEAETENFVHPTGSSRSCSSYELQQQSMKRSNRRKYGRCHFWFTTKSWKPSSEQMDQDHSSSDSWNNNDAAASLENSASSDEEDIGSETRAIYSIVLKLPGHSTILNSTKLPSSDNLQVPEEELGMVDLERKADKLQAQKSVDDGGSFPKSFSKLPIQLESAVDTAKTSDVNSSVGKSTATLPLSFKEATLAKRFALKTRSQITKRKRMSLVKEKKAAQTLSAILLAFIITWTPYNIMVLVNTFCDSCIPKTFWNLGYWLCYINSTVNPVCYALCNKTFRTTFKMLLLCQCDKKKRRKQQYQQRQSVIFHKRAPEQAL

As for `Cc1ccc2ncccc2c1COCCC(=O)N1CC2CCC(C1)N2c1ccc(C#N)cn1` [Example 177, 6-(3-{3-[(6-methylquinolin-5-yl)methoxy]propanoyl}-3,8-diazabicyclo[3.2.1]octan-8-yl)pyridine-3-carbonitrile], the pIC50 (usually the IC50 on a negative log10 scale, so that one unit is a factor of ten) on human M1 receptor was over 7.00; at M2 (setting [1]), 5.00 to 6.00; on M3 it was 5.00 to 6.00.
For `COc1cnc2cccc(CNCCC(=O)N3CC4CCC(C3)N4c3ccc(Cl)cn3)c2c1` [Example 178, 1-[8-(5-chloropyridin-2-yl)-3,8-diazabicyclo[3.2.1]octan-3-yl]-3-{[(3-methoxyquinolin-5-yl)methyl]amino}propan-1-one], the pIC50 at human M1 receptor was 6.00 to 7.00; at M2 (setting [1]), under 5.00; at M3 it was under 5.00.
Consider `O=C(COCCc1cccn2ncnc12)N1CC2CCC(C1)N2c1ccc(Cl)cn1` [Example 179, 1-[8-(5-chloropyridin-2-yl)-3,8-diazabicyclo[3.2.1]octan-3-yl]-2-(2-{[1,2,4]triazolo[1,5-a]pyridin-8-yl}ethoxy)ethan-1-one], for which the pIC50 at human M1 receptor was over 7.00; at M2 (setting [1]), under 5.00; at M3 it was under 5.00.
In the case of `N#Cc1ccc(N2C3CCC2CN(C(=O)COCCc2cccn4ncnc24)C3)nc1` [Example 180, 6-{3-[2-(2-{[1,2,4]triazolo[1,5-a]pyridin-8-yl}ethoxy)acetyl]-3,8-diazabicyclo[3.2.1]octan-8-yl}pyridine-3-carbonitrile], the pIC50 at human M1 receptor is over 7.00; on M2 (setting [1]), 5.00 to 6.00; on M3, under 5.00.
In the case of `COc1cnc2cccc(CCOCC(=O)N3CC4CCC(C3)N4c3ccc(C#N)cn3)c2c1` [Example 181, 6-(3-{2-[2-(3-methoxyquinolin-5-yl)ethoxy]acetyl}-3,8-diazabicyclo[3.2.1]octan-8-yl)pyridine-3-carbonitrile], the pIC50 at human M1 receptor was over 7.00; on M2 (setting [1]) it was 5.00 to 6.00; on M3, 5.00 to 6.00.
In the case of `N#Cc1ccc(N2C3CCC2CN(C(=O)COCc2cccc4ncnn24)C3)nc1` [Example 182, 6-{3-[2-({[1,2,4]triazolo[1,5-a]pyridin-5-yl}methoxy)acetyl]-3,8-diazabicyclo[3.2.1]octan-8-yl}pyridine-3-carbonitrile], the negative logarithm of the IC50 (pIC50) is 5.00 to 6.00 on human M1 receptor (setting [2]), under 5.00 at M2 (setting [1]) and under 5.00 at M3.
Turning to `N#Cc1ccc(N2C3CCC2CN(C(=O)COCCc2cccc4ncnn24)C3)nc1` [Example 183, 6-{3-[2-(2-{[1,2,4]triazolo[1,5-a]pyridin-5-yl}ethoxy)acetyl]-3,8-diazabicyclo[3.2.1]octan-8-yl}pyridine-3-carbonitrile], the pIC50 at human M1 receptor is over 7.00; at M2 (setting [1]), under 5.00; on M3, 5.00 to 6.00.
Regarding `N#Cc1ccc(N2C3CCC2CN(C(=O)COCc2cccn4ncnc24)C3)nc1` [Example 184, 6-{3-[2-({[1,2,4]triazolo[1,5-a]pyridin-8-yl}methoxy)acetyl]-3,8-diazabicyclo[3.2.1]octan-8-yl}pyridine-3-carbonitrile], the pIC50 on human M1 receptor is over 7.00; on M2 (setting [1]) it was under 5.00; on M3, under 5.00.
As for `N#Cc1ccc(N2C3CCC2CN(C(=O)CCOCc2cccc4nccn24)C3)nc1` [Example 186, 6-{3-[3-({imidazo[1,2-a]pyridin-5-yl}methoxy)propanoyl]-3,8-diazabicyclo[3.2.1]octan-8-yl}pyridine-3-carbonitrile], the negative logarithm of the IC50 (pIC50) at human M1 receptor was over 7.00; at M2 (setting [1]), under 5.00; on M3, 5.00 to 6.00.
On to `N#Cc1ccc(N2C3CCC2CN(C(=O)CCOCc2cccc4c2OCO4)C3)nc1` [Example 187, 6-(3-{3-[(2H-1,3-benzodioxol-4-yl)methoxy]propanoyl}-3,8-diazabicyclo[3.2.1]octan-8-yl)pyridine-3-carbonitrile], for which the pIC50 was 6.00 to 7.00 at human M1 receptor, under 5.00 at M2 (setting [1]) and under 5.00 on M3.
For `N#Cc1ccc(N2C3CCC2CN(C(=O)CCOCc2cccc4ncc(C(F)(F)F)n24)C3)nc1` [Example 188, 6-[3-(3-{[3-(trifluoromethyl)imidazo[1,2-a]pyridin-5-yl)methoxy}propanoyl)-3,8-diazabicyclo[3.2.1]octan-8-yl)pyridine-3-carbonitrile], the pIC50 on human M1 receptor (setting [2]) is 5.00 to 6.00; at M2 (setting [1]), 5.00 to 6.00; at M3, under 5.00.
In the case of `O=C(CCNCc1cccc2ncnn12)N1CC2CCC(C1)N2c1ccc(-c2ccccc2)cn1` [Example 193, 1-[8-(5-phenylpyridin-2-yl)-3,8-diazabicyclo[3.2.1]octan-3-yl]-3-[({[1,2,4]triazolo[1,5-a]pyridin-5-yl}methyl)amino]propan-1-one], the negative-log IC50 (pIC50) on human M1 receptor (setting [2]) is 5.00 to 6.00; on M2 (setting [1]), under 5.00; at M3 it was 5.00 to 6.00.
As to `N#Cc1ccc(N2C3CCC2CN(C(=O)C2CC(=Cc4cccc5ncccc45)C2)C3)nc1` (stereo not drawn) [Example 194, 6-(3-{3-[(quinolin-5-yl)methylidene]cyclobutanecarbonyl}-3,8-diazabicyclo[3.2.1]octan-8-yl)pyridine-3-carbonitrile], the pIC50 at human M1 receptor was over 7.00; at M2, 6.00 to 7.00; at M3 it was 5.00 to 6.00.
For the molecule `N#Cc1ccc(N2C3CCC2CN(C(=O)C2CC(=Cc4cccc5cnccc45)C2)C3)nc1` (stereo not drawn) [Example 195, 6-(3-{3-[(isoquinolin-5-yl)methylidene]cyclobutanecarbonyl}-3,8-diazabicyclo[3.2.1]octan-8-yl)pyridine-3-carbonitrile], the pIC50 at human M1 receptor (setting [2]), at M2 (setting [1]) and at M3 was 5.00 to 6.00 in each case.
For `N#Cc1ccc(N2C3CCC2CN(C(=O)[C@H]2C[C@H](Oc4cccc5ncsc45)C2)C3)nc1` [Example 197, 6-{3-[(1r,3r)-3-(1,3-benzothiazol-7-yloxy)cyclobutanecarbonyl]-3,8-diazabicyclo[3.2.1]octan-8-yl}pyridine-3-carbonitrile], the results for the pIC50 on human M1 receptor, at M2 (setting [1]) and at M3 were 6.00 to 7.00, under 5.00 and under 5.00, respectively.

Values taken from patent publication US11512090B2, “Muscarinic acetylcholine M1 receptor antagonists” (PIPELINE THERAPEUTICS, INC., priority 2018, dated 2022).
